Entries after “also recorded” stand apart in the source; their conditions may differ. Counter-ions that a name gives are not always drawn.
Assays:
[1] = system: adults of Sitophilus oryzae; assay: Toxicity study on adults of Sitophilus oryzae (fumigation, mortality); format: in vivo; details: 25° C., 24 hours fumigation
Description: The insect species studied were laboratory strains of the rice weevil Sitophilus oryzae present as the egg, larvae, pupae or adult and mixed aged cultures thereof in bulk stores of wheat.
Toxicity studies of ethyl formate alone compared with ethyl formate and […] were conducted on adults of the rice weevil Sitophilus oryzae at 25° C. and 24 hours fumigation.

[2] = 4 tonne outloading trial: fumigant concentration next day; details: 160 g/t, tray of wheat, overnight, 20° C.
Description: During outloading, wheat was treated/fumigated with a 95:5 (w:w) ratio of ethyl formate+methyl isothiocyanate at a rate of 160 g/t. The treated wheat was then transferred by auger into a 4 tonne truck tray and then covered and held overnight (see FIG. 10).

[3] = Stability of ethyl formate and methyl isothiocyanate formulation stored at 25° C.; format: physicochemical; details: for stability when formulated and stored: 25° C., 2 months; for percent of the original fumigant present (M/Mo): formulation stored at 25° C.
Description: The stability of ethyl formate and methyl isothiocyanate as a fumigant formulation stored at 25° C. was assessed for a period of 1 day, 1 month and 2 months. […] This is also graphically represented in FIG. 1.

pupae of S. oryzae = assay: Emerging adult study on pupae of S. oryzae; format: in vivo, Sitophilus oryzae; details: 25° C.
Description: Table 4 compares the toxicity of ethyl formate alone and ethyl formate+methyl isothiocyanate to pupae of S. oryzae at 25° C. after 6 hours fumigation at two concentrations.
Table 5 compares the toxicity of ethyl formate alone and ethyl formate+methyl isothiocyanate to pupae of S. oryzae at 25° C. after 24 hours fumigation at two concentrations.

[4] = system: mixed aged cultures (egg, larvae and pupae) of S. oryzae; assay: Emerging adult study on mixed aged cultures of S. oryzae; format: in vivo; details: Sitophilus oryzae, 25° C., 6 hours fumigation, read-out: emerging adult population, % of control
Description: Table 3 compares the toxicity of ethyl formate alone and ethyl formate+methyl isothiocyanate to mixed aged cultures (egg, larvae and pupae) of S. oryzae at 25° C. after 6 hours fumigation at two concentrations.

SMILES | mortality ([1]; 5.9 mg/L) | mortality at 5.9 µg/mL ([1]; Sitophilus oryzae, 5.9 mg/L) [%] | mortality at 11.8 µg/mL ([1]; Sitophilus oryzae, 11.8 mg/L) [%] | concentration of fumigant component on the next day [2] | stability when formulated and stored [3] | percent of the original fumigant present (M/Mo) ([3]; 1 Day) [%] | percent of the original fumigant present (M/Mo) ([3]; 1 Month) [%] | percent of the original fumigant present (M/Mo) ([3]; 2 Months) [%] | emerging adult % (pupae of S. oryzae; 34.8 mg/L, 24 hours fumigation) [%] | emerging adult % (pupae of S. oryzae; 67.4 mg/L, 6 hours fumigation) [%] | emerging adult % (pupae of S. oryzae; 67.4 mg/L, 24 hours fumigation) [%] | emerging adult % (pupae of S. oryzae; 101.1 mg/L, 6 hours fumigation) [%] | activity at 67.4 µg/mL ([4]; 67.4 mg/L) [%] | activity at 101.1 µg/mL ([4]; 101.1 mg/L) [%]
CCOC=O [EtF, ethyl formate] | inactive; also recorded: unaffected | 0 | 48 | below TLV | stable | 100 | 102 | 98.5 | 19 | 24 | 9 | 12 | 27 | 5
CN=C=S [MITC, methyl isothiocyanate] |  |  |  | below TLV | stable | 100 | 98 | 101.5 |  |  |  |  |  | 

From patent US8278352B2, “Pesticide compositions and methods” (Commonwealth Scientific & Industrial Research Organisation, priority 2004, dated 2012)
